US20220241266A1, “COMPOSITIONS AND METHODS USING TRIGONELLINE AND HIGH PROTEIN FOR PREVENTING OR TREATING CONDITIONS OR DISORDERS IN SKELETAL MUSCLE” (SOCIETE DES PRODUITS NESTLE S.A., priority 2019, published 2022)

Tests used:
[1] = tested on: Human Skeletal Muscle Myotubes (HSMM); details: 6 h, 500 μm
Procedure: Human primary myoblasts from two different donors were seeded in 6 well plates at a density of 200,000 cells per well in skeletal muscle growth medium (SKM-M, AMSbio). After one day, the differentiation was induced by a medium change for 4 days using differentiation culture medium (Gibco No. 31330-028). Cells were treated with isotopically labelled trigonelline (^13C carbonyl; 3^2H on methyl) for 6 h.
Cell extracts were separated on a Vanquish UHPLC+focused LC system (Thermo Scientific) with a hydrophilic liquid chromatography (HILIC) iHILIC-Fusion(P) column (Hilicon) carrying the dimensions 150×2.1 mm, 5 μm and a guard column (iHILIC-fusion(P), Hilicon) in front. The separation of metabolites was achieved by applying a linear solvent gradient in normal phase at 0.25 mL/min flow rate and 35° C. of temperature. As mobile phase, solvent A was water with 10 mM ammonium acetate and 0.04% (v/v) ammonium hydroxide, pH ˜9.3, and solvent B was acetonitrile.
The eluting metabolites were analyzed with an Orbitrap Fusion Lumos mass spectrometer (Thermo Scientific) with a heated electrospray ionization (H-ESI) source in positive and negative mode at a resolution of 60,000 at m/z of 200. Instrument control and data analysis were conducted using Xcalibur (Thermo Scientific).

[2] = tested on: RW1596 (myo-3p::GFP) worms; details: 1 mM trigonelline chloride, 11 day old worms vs age matched control
Procedure: RW1596 (myo-3p::GFP) worms were collected at Day 1 (young adults) and at Day 11 (aged animals) for muscle integrity assessment. Worms were immobilized with tetramisole and analyzed by confocal microscopy, to assess the muscle fibers morphology shown by GFP fluorescence imaging. Trigonelline treatment with 1 mM trigonelline chloride and experimental measurements were started at Day 1 of wild type N2 worm adulthood, in a regimen of chronic exposure till experiments termination.

[3] = tested on: C. elegans; details: 1 mM trigonelline chloride, day 8 old worms, vs control
Procedure: Absolute quantification of the mtDNA copy number in wild type N2 worms was performed by real-time PCR. Relative values for nduo-1, and act-1 were compared within each sample to generate a ratio representing the relative level of mitochondrial DNA per nuclear genome. The average of at least two technical repeats was used for each biological data point. Each experiment was performed on at least ten independent biological samples (individual worms). Trigonelline treatment with 1 mM trigonelline chloride and experimental measurements were started at Day 1 of wild type N2 worm adulthood, in a regimen of chronic exposure till experiments termination.

[4] = tested on: Human Skeletal Muscle Myotubes (HSMM); experiment: Colorimetric NAD+ quantification in differentiated human primary myoblasts; type: cell-based; details: 16 h, different doses
Procedure: After one day, the differentiation is induced by a medium change for 4 days. Cells were treated with synthetic trigonelline monohydrate (FIG. 4A) or with Fenugreek seed extract enriched in trigonelline containing 40.45% trigonelline (FIG. 4B) for 16 h at difference doses. NAD^+ was measured using colorimetric NAD^+ quantification assay (Biovision NAD^+/NADH Quantitation Colorimetric Kit #k337-100).

[5] = tested on: C57BL/6JRj male mice; experiment: Liver NAD+ in mice after oral gavage; type: in vivo; details: equimolar of 300 mg/kg trigonelline, 120 minutes
Procedure: FIG. 5—Liver NAD^+ levels of C57BL/6JRj mice measured 120 minutes after administration of 300 mg/kg trigonelline chloride or an equimolar amount of fenugreek seed extract by oral gavage
10 weeks C57BL/6JRj male mice received trigonelline (sigma #T5509) or fenugreek seed extract enriched in trigonelline (40.45% trigonelline) by oral gavage (equimolar of 300 mg/kg trigonelline, n=8/group). After 120 minutes treatment, the liver was harvested and flash frozen in liquid nitrogen. NAD^+ was measured in liver using an enzymatic method adapted from Dall, M., et al., Mol Cell Endocrinol, 2018. 473: p. 245-256.

[6] = tested on: C. elegans; details: 1 mM, day 8 and day 11 old worms, vs control
Text: 45 to 60 worms per condition were manually scored for mobility after poking. Worms that were unable to respond to any repeated stimulation were scored as dead. […] Trigonelline treatment and experimental measurements were started at Day 1 of wild type N2 worm adulthood, in a regimen of chronic exposure till experiments termination.

[7] = tested on: C. elegans; details: 1 mM, vs control
Procedure: C. elegans mobility test was performed using the Movement Tracker software (Mouchiroud, L. et al. Curr Protoc Neurosci 77, 8.37.1-8.37.21 (2016)). The experiments were repeated at least twice. Trigonelline treatment and experimental measurements were started at Day 1 of wild type N2 worm adulthood, in a regimen of chronic exposure till experiments termination.

[8] = tested on: C. elegans; details: 1 mM, chronic exposure from Day 1 adulthood
Procedure: Worm lifespan tests were performed using about 100 animals per condition and scored manually every other day. Trigonelline treatment and experimental measurements were started at Day 1 of wild type N2 worm adulthood, in a regimen of chronic exposure till experiments termination.

Structure (SMILES): [2H]C([2H])([2H])[n+]1cccc([13C](=O)[O-])c1 [labelled trigonelline]
- relative abundance of labelled NAD+ (M+1) ([1]; HSMM, vs naturally occurring NAD+ control): increase in relative abundance of labelled NAD+ (M+1)

Structure (SMILES): C[n+]1cccc(C(=O)[O-])c1 [trigonelline, 1-methylpyridin-1-ium-3-carboxylate]
- NAD+ relative concentration relative to control (LC-MS) ([1]; HSMM from 2 donors): enhancement of NAD+
- myofibrillar structure (GFP-tagged myosin) [2]: improved more organized myofibrillar structure
- ratio of mitochondrial-encoded gene (nduo-1) to nuclear-encoded gene (act-1) [3]: higher than in the control group

Structure (SMILES): C[n+]1cccc(C(=O)[O-])c1 [chemically synthesized trigonelline, trigonelline monohydrate]
- NAD+ content compared to the control [4]: significant increase in NAD^+ content
- NAD+ content in the liver compared to the control [5]: significant increase in NAD^+ content in the liver

Structure (SMILES): C[n+]1cccc(C(=O)O)c1.[Cl-] [trigonelline chloride]
- stimulated mobility score (worms responsive to a physical stimulus) [6]: more responsive to a physical stimulus than the control
- distance travelled during spontaneous mobility assay ([7]; advanced aging phase): significantly increased
- mean speed during spontaneous mobility assay ([7]; from day 1 adulthood): increased the mean speed compared to the control
- increase of lifespan [8]: 21%
